Active and inactive are the calls of the source.
What was measured:
[1] = human group III sPLA2 inhibitors, dose response, biochemical, QFRET, IC50 (AID 743457);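 note: green fluorescence rise as the enzyme cleaves BODIPY PC-A2 in liposomes; potency for inhibition of the enzyme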
[2] = Luminescence Cell-Based Dose Retest to Confirm Inhibitors of Cancer Stem Cells. [Related pubchem assays (depositor defined):AID2717, AID2721]; type: functional; conditions: Homo sapiens
[3] = Luminescence Cell-Based Dose Response HTS to Identify Inhibitors of 5'UTR Stem-Loop Driven Prion Protein mRNA Translation in H4 Neuroglioblastoma Cells. [Related pubchem assays: 1827 (Project Summary), 1813 (Primary HTS)]; type: functional
[4] = Counterscreen for AddAB inhibitors: absorbance-based bacterial cell-based high throughput dose response assay for inhibitors of bacterial viability. [Related pubchem assays (depositor defined):AID435030, AID449728, AID449731, AID488942, AID488955, AID488956]; type: functional
[5] = C. albicans growth with fluconazole, confirmation, fluorescence, retest (AID 2467); type: functional, cell-based
[6] = NIH-3T3 fibroblast cytotoxicity, dose response, cytotoxicity control, cell-based, fluorescence, Alamar Blue, secondary assay (AID 2327); type: functional;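 note: NIH-3T3 mouse fibroblasts cultured with fluconazole at 8 µg/mL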
[7] = inhibitors of SNCA 5'UTR-driven reporter translation, confirmation, H4 neuroglioma cells, luminescence (AID 1988); type: functional, cell-based
Exodeoxyribonuclease V = molecular target: T1, Exodeoxyribonuclease V (Escherichia coli (strain K12), UniProt P04993+P07648+P08394); assay: E. coli RecBCD inhibitors, dose response, counter-screen for AddAB inhibitor project, absorbance, V66 E. coli, mutant T4 phage (AID 492957); type: functional, cell-based, Escherichia coli str. K-12 substr. MG1655
T1 sequence (P04993 whole entry): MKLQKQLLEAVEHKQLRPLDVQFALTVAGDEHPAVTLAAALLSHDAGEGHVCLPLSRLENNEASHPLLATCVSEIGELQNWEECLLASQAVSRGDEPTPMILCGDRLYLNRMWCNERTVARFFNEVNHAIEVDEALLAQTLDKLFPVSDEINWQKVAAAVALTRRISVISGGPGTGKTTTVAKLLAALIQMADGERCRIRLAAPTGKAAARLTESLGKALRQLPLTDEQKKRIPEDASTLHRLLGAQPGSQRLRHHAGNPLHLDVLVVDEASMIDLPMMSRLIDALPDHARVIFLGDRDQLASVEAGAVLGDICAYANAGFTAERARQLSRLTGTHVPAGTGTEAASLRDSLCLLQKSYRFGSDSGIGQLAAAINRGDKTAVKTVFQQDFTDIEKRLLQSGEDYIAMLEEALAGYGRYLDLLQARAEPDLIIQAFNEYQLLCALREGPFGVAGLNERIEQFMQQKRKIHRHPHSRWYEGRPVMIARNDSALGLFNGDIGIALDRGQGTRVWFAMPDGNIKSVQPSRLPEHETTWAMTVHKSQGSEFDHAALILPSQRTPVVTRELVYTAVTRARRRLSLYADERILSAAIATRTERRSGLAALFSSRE
T1 sequence (P07648 whole entry): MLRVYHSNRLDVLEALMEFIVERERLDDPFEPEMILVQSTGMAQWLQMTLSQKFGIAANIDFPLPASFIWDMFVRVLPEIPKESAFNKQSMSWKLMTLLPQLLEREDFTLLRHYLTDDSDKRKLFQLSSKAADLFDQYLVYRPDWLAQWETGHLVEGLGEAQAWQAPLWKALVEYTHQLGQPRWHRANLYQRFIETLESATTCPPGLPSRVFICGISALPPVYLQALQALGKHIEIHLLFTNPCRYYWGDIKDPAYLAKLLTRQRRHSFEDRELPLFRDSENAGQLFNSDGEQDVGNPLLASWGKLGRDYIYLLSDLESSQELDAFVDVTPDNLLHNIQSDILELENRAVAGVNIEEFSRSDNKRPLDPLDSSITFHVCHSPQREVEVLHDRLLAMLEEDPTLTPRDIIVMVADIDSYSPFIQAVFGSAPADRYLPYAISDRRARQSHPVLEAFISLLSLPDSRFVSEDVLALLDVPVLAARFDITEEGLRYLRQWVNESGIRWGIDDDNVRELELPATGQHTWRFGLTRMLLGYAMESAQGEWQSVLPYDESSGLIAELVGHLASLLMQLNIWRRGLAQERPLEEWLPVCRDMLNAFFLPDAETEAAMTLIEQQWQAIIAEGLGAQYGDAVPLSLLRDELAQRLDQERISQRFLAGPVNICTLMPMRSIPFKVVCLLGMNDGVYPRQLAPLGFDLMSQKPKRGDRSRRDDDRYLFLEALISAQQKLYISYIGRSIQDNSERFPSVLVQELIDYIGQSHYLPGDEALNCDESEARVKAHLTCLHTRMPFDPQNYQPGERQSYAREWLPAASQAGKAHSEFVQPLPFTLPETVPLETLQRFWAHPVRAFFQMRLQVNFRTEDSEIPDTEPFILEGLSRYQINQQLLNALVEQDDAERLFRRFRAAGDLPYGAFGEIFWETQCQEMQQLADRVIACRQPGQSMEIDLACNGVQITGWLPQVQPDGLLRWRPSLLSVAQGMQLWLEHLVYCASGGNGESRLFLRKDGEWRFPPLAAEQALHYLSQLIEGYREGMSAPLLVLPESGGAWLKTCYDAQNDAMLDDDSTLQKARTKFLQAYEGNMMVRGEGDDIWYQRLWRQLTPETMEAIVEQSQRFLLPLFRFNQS
T1 sequence (P08394 whole entry): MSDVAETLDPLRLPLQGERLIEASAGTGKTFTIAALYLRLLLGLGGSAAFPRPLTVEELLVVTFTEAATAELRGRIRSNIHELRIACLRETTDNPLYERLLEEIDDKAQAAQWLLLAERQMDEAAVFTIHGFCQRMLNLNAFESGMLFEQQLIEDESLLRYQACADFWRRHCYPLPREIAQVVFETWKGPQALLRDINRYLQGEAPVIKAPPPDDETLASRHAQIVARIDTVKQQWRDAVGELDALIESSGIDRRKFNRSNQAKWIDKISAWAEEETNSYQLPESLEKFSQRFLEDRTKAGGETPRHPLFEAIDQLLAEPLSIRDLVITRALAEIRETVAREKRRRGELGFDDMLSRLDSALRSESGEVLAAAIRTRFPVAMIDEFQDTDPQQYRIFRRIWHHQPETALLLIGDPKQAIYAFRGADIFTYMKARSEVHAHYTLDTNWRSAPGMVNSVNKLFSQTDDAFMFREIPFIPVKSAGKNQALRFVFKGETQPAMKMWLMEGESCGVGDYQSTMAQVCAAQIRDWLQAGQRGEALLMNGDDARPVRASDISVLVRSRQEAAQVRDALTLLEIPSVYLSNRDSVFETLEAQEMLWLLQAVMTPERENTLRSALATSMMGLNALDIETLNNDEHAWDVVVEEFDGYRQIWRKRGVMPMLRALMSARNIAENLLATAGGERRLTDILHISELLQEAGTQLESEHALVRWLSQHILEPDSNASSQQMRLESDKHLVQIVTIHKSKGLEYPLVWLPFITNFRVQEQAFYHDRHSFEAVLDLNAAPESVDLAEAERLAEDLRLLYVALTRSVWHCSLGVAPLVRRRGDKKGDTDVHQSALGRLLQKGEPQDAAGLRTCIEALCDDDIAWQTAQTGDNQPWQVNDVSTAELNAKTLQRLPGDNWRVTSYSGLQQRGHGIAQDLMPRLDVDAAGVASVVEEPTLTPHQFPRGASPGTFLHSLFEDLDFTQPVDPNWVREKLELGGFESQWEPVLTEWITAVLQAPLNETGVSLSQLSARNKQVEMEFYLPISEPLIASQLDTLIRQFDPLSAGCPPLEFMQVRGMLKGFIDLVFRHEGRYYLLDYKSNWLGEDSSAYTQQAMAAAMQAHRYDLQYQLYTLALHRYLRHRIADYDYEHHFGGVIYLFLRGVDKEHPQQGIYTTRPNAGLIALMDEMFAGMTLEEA

[8] = inhibitors of firefly luciferase expression or activity, dose response, H4 neuroglioma cells, luminescence (AID 1990); type: functional, cell-based
INS1 = assay: beta cell apoptosis inhibitors, cytokine rescue, dose response, luminescence, retest (AID 449756); type: functional, cell-based; conditions: Rattus norvegicus;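 note: cell death triggered by IL-1 beta plus TNF-alpha plus IFN-gamma mixture; protective hits raise ATP signal compared with cytokine alone wells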
Beta-lactamase [9] = molecular target: T2, Beta-lactamase (Pseudomonas aeruginosa, UniProt Q79MP6); assay: IMP-1 metallo-beta-lactamase inhibitors, dose response, selectivity assay for VIM-2 inhibitor project, biochemical, epi-absorbance (AID 1920)
T2 sequence (Q79MP6 whole entry): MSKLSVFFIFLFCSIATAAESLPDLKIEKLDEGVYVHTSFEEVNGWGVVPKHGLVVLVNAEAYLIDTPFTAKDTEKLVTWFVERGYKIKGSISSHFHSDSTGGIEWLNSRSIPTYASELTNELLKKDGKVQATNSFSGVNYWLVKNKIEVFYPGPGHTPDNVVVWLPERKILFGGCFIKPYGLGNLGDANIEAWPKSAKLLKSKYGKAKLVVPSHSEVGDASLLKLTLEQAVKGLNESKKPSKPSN

Beta-lactamase [10] = molecular target: Beta-lactamase (Salmonella choleraesuis (strain SC-B67), UniProt Q5J463); assay: Epi-absorbance-based counterscreen for selective VIM-2 inhibitors: dose response biochemical high throughput screening assay to identify inhibitors of TEM-1 serine-beta-lactamase.
Sequence of Beta-lactamase (Salmonella choleraesuis (strain SC-B67), UniProt Q5J463) (Q5J463 whole entry): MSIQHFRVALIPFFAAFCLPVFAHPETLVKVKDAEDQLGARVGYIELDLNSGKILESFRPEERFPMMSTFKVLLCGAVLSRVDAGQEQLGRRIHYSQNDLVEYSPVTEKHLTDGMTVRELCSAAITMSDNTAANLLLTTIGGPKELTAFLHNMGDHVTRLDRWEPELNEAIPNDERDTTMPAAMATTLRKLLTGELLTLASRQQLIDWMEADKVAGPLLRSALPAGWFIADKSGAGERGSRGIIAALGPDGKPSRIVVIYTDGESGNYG

Beta-lactamase [11] = molecular target: T2, Beta-lactamase; assay: […] counterscreen for selective VIM-2 inhibitors: dose response biochemical high throughput screening assay to identify inhibitors of IMP-1 metallo-beta-lactamase.
[12] = Shn3 3'UTR reporter inhibitors, dose response, cell-based, Clone20 osteoblasts, firefly luciferase, cherry-picked (AID 624132); type: functional;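 note: firefly luciferase luminescence from reporter carrying the Shn3 3'UTR in osteoblasts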
[13] = HepG2 cell cytotoxicity, dose response, cytotoxicity control for Shn3 inhibitor project, CellTiter-Glo, cherry-picked (AID 624134); type: functional, cell-based
[14] = inhibitors of control Renilla luciferase reporter, dose response, counter-screen for Shn3 3'UTR targeting project, Clone20-Shn3RL cells, dual-Glo, cherry-pick, set 2 (AID 720724); type: functional, cell-based; conditions: Dual-Go Shn3RL
[15] = control 3'UTR Renilla luciferase suppression, dose response, counter-screen for Shn3 inhibitor project, cell-based, Clone20-Shn3RL, cherry-picked (AID 624133); type: functional
[16] = reduction of Shn3 3'UTR firefly luciferase signal, dose response, Schnurri-3 inhibitor project, cell-based, Clone20 osteoblasts, cherry-pick, set 2 (AID 720490); type: functional;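 note: actives lower the luminescence signal as inhibitors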
Protein Wnt-3a = Protein Wnt-3a (Mus musculus, UniProt P27467); assay: Wnt3a-driven reporter signaling inhibition, dose response, selectivity assay for Gli-SUFU antagonist project, Wnt-LIGHT cells, luminescence (AID 651570); type: functional; conditions: read-out: IC50_Mean;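 note: Wnt-LIGHT reporter cells stimulated with conditioned medium from Wnt3a-producing cells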
Sequence of Protein Wnt-3a (P27467 whole entry): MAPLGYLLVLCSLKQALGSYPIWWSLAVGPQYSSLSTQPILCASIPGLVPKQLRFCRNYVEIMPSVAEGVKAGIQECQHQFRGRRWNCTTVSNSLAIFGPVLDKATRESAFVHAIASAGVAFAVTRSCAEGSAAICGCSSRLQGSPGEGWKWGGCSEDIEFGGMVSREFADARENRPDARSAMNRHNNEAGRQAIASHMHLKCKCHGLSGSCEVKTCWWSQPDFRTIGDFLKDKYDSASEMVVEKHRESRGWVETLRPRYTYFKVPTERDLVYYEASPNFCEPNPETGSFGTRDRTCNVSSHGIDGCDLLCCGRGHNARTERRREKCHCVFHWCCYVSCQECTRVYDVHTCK

Cryptococcus neoformans = assay: PubChem AID 686997; type: functional, organism-based
[17] = HEK293T cell cytotoxicity, dose response, cytotoxicity control, CellTiter-Glo luminescence, cherry-picked samples, set 4 (AID 743441); type: functional, cell-based; conditions: HEK293
[18] = molecular target: Matrix metalloproteinase-14 (Homo sapiens, UniProt P50281); assay: Dose Response confirmation of uHTS hits for a small molecule inhibitors of MT1-MMP activation in a fluorescence assay set 1.; type: functional
Nonstructural protein 1 = Nonstructural protein 1 (Influenza A virus, UniProt Q194T2); type: functional, Influenza A virus (A/California/07/2009(H1N1))
Sequence of Nonstructural protein 1 (Q194T2 whole entry): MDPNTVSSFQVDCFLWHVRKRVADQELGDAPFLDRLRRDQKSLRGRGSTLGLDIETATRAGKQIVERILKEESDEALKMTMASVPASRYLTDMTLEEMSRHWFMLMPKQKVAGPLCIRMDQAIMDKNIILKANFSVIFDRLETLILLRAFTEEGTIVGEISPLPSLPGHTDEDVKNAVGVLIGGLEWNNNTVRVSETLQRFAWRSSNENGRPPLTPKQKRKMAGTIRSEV

[19] = molecular target: DNA repair protein RAD52 homolog (Homo sapiens, UniProt P43351); type: functional, biochemical
Sequence of DNA repair protein RAD52 homolog (P43351 whole entry): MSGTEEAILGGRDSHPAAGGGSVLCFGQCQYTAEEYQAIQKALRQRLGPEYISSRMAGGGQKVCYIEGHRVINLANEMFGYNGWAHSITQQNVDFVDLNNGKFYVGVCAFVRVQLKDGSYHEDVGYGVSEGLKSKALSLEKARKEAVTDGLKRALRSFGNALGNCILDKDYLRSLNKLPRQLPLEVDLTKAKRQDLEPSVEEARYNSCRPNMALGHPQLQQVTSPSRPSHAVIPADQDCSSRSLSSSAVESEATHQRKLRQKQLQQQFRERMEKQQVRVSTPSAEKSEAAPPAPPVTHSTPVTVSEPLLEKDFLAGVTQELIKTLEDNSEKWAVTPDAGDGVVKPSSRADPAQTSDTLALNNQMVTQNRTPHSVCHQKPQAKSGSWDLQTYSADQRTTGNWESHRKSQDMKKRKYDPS

[20] = LMP1-driven NF-kB reporter inhibition, dose response, cell-based, luciferase reporter, luminescence, dry powder, set 2 (AID 624376); type: functional
[21] = inhibitors of TNFa-stimulated NF-kB luciferase reporter, dose response, selectivity assay for EBV LMP1 NF-kB inhibitor project, HEK293 LMP1 reporter cells, dry powder, set 2 (AID 624369); type: functional
[22] = MITF: Counter assay: A375 proliferation Measured in Cell-Based System Using Plate Reader - 2084-03_Inhibitor_Dose_DryPowder_Activity_Set8.; type: functional; conditions: A-375
[23] = MITF Orthogonal Assay: SK-MEL-5 CTG Assay Measured in Cell-Based System Using Plate Reader - 2084-02_Inhibitor_Dose_DryPowder_Activity_Set7.; type: functional
[24] = HEK293 cell cytotoxicity, dose response, cytotoxicity control, ATP luminescence, dry powder, Set6 (AID 743142); type: functional, cell-based

Cc1onc(-c2c(Cl)cccc2Cl)c1C(=O)NN=C(N)COc1ccc(Cl)cc1
IC50 [1]: > 122 µM (inactive)
AC50 [2]: 3.07 µM (active)
EC50 [3]: 12 µM (active)
IC50 [4]: > 119 µM (inactive)
EC50 [5]: 3.09 µM (active)
EC50 [6]: > 150 µM (inactive)
EC50 [7]: > 120 µM (not active)
IC50 (Exodeoxyribonuclease V): > 119 µM (inactive)
EC50 [8]: > 120 µM (not active)
AC50 (INS1): 3.71 µM (active)

S=c1[nH]nc(-c2cccs2)n1Cc1ccccc1
IC50 (Beta-lactamase [9]): > 59.6 µM (inactive)
IC50 (Beta-lactamase [10]): > 59.6 µM (inactive)
IC50 (Beta-lactamase [11]): > 59.6 µM (inactive)

CC(Sc1nc2ccccc2c(=O)n1C)C(=O)N(C)C1CCCCC1 (centres undefined)
AC50 [12]: 2.27 µM (active)
AC50 [13]: 38.2 µM (active)
AC50 [14]: 49.9 µM (active)
AC50 [15]: 13.7 µM (active)
AC50 [16]: 2.03 µM (active)
IC50 (Protein Wnt-3a): 1.92 µM (active)

Cc1cc(Cl)ccc1N=C(S)NCc1ccc(F)cc1
AC50 (Cryptococcus neoformans): > 70 µM (inactive)

Cc1cc(C)c(OCCNC(=O)c2ccccc2Sc2ccccc2C#N)c(C)c1
AC50 [17]: > 52 µM (inactive)

CCCN1C(=O)/C(=C2/C=Cc3ccccc3N2CC)SC1=S
IC50 [18]: 29.7 µM (inactive)
IC50 (Nonstructural protein 1): 5.77 µM (active)

Cc1cc(N2CCNC[C@@H]2C)ccc1N1CC[C@@H](O)C1
AC50 [19]: 4.37 µM (active)

C/C=C/c1cccc(-c2nc(C(=O)Nc3nccs3)cc3c2[C@@H](CCO)N(C(=O)NC(C)C)C3)c1
AbsAC35 [20]: 118.9 µM
AbsAC35 [21]: 58.58 µM

Cc1ccc(NC2=CC(=O)c3ccccc3C2=O)cc1C
AC50 [22]: > 70 µM (inactive)
AC50 [23]: 0.904 µM (active)

O=C(Cc1ccc(Cl)cc1)NCCC(=O)N[C@@H]1CCCc2ccccc21
AC50 [24]: 5.41 µM (active)

From ChEMBL document CHEMBL1201862, “PubChem BioAssay data set” (2004)
